# Where a name gives a salt, the structure may show the parent alone. Activity calls are given as the source filed them. For most assays here, no stated cut-off is given here; in the data, actives have a measured Kd and inactives only a lower limit.
# Legend:
# [1] = biological target: Mitogen-activated protein kinase kinase kinase kinase 5 (Homo sapiens, UniProt Q9Y4K4)
# [2] = biological target: Fibroblast growth factor receptor 1 (Homo sapiens, UniProt P11362)
# [3] = biological target: Ribosomal protein S6 kinase beta-1 (Homo sapiens, UniProt P23443)
# [4] = biological target: Inosine-5'-monophosphate dehydrogenase 2 (Homo sapiens, UniProt P12268)
# [5] = biological target: Casein kinase I isoform delta (Homo sapiens, UniProt P48730)
# [6] = biological target: Ribosomal protein S6 kinase alpha-4 (Homo sapiens, UniProt O75676)
# [7] = biological target: Putative heat shock protein HSP 90-beta 2 (Homo sapiens, UniProt Q58FF8)
# [8] = biological target: T1, Mitogen-activated protein kinase 15 (Homo sapiens, UniProt Q8TD08)
# T1 sequence (Q8TD08 whole entry): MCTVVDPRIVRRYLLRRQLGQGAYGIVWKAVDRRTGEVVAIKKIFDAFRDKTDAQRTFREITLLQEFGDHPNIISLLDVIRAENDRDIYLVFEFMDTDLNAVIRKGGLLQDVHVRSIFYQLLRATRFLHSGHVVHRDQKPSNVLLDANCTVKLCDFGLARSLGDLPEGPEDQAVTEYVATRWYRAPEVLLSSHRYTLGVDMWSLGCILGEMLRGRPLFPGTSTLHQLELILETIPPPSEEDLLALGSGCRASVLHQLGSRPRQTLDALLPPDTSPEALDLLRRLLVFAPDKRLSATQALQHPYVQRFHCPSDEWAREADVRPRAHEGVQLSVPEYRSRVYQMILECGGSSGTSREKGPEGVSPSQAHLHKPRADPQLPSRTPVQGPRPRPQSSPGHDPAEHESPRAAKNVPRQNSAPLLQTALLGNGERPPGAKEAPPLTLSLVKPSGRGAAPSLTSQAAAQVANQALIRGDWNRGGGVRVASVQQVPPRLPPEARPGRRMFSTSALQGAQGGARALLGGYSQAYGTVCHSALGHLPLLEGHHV
# [9] = biological target: Cyclin-dependent kinase 7 (Homo sapiens, UniProt P50613)
# Activated CDC42 kinase 1 = Activated CDC42 kinase 1 (Homo sapiens, UniProt Q07912)
# [10] = biological target: Non-receptor tyrosine-protein kinase TYK2 (Homo sapiens, UniProt P29597)
# [11] = biological target: TRAF2 and NCK-interacting protein kinase (Homo sapiens, UniProt Q9UKE5)
# [12] = biological target: S-adenosylmethionine synthase isoform type-2 (Homo sapiens, UniProt P31153)
# [13] = biological target: T2, NUAK family SNF1-like kinase 2 (Homo sapiens, UniProt Q9H093)
# T2 sequence (Q9H093 whole entry): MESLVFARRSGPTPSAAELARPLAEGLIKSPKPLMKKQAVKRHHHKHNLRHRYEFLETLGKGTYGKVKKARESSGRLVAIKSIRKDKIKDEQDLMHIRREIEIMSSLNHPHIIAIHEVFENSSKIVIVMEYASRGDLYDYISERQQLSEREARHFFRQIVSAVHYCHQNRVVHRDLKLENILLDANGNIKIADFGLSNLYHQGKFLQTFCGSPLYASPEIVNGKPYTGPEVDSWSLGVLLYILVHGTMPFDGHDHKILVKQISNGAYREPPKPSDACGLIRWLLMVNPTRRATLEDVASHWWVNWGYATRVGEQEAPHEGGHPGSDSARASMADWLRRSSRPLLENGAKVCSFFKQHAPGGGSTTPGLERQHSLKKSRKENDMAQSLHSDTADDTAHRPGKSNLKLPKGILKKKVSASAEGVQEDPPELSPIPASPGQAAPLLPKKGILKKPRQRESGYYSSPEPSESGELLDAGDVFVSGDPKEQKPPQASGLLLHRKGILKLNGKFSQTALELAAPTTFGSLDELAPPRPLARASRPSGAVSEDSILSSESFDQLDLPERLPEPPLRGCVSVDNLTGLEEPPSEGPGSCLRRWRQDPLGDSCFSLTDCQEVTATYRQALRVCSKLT
# [14] = biological target: Receptor-interacting serine/threonine-protein kinase 2 (Homo sapiens, UniProt O43353)
# Deoxycytidine kinase = Deoxycytidine kinase (Homo sapiens, UniProt P27707)
# [15] = biological target: Casein kinase I isoform gamma-1 (Homo sapiens, UniProt Q9HCP0)
# [16] = biological target: Tyrosine-protein kinase ABL2 (Homo sapiens, UniProt P42684)
# [17] = biological target: Protein kinase C theta type (Homo sapiens, UniProt Q04759)
# [18] = biological target: Tyrosine-protein kinase CSK (Homo sapiens, UniProt P41240)
# Chain of Receptor-interacting serine/threonine-protein kinase 2 (O43353 whole entry): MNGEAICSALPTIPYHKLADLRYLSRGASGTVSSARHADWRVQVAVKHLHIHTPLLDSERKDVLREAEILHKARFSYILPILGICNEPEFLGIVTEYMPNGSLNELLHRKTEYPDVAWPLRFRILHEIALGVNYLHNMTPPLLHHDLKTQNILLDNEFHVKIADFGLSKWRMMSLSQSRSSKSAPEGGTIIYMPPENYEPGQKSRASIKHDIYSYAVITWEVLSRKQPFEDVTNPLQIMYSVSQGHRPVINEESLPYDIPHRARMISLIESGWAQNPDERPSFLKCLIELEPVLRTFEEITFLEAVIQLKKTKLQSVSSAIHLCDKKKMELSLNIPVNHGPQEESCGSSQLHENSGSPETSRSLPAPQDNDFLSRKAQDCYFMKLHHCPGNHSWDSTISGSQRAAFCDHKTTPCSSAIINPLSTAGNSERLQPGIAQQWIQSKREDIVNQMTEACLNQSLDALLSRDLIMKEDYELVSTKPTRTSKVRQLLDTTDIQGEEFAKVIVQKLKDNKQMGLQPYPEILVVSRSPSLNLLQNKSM
# Chain of Non-receptor tyrosine-protein kinase TYK2 (P29597 whole entry): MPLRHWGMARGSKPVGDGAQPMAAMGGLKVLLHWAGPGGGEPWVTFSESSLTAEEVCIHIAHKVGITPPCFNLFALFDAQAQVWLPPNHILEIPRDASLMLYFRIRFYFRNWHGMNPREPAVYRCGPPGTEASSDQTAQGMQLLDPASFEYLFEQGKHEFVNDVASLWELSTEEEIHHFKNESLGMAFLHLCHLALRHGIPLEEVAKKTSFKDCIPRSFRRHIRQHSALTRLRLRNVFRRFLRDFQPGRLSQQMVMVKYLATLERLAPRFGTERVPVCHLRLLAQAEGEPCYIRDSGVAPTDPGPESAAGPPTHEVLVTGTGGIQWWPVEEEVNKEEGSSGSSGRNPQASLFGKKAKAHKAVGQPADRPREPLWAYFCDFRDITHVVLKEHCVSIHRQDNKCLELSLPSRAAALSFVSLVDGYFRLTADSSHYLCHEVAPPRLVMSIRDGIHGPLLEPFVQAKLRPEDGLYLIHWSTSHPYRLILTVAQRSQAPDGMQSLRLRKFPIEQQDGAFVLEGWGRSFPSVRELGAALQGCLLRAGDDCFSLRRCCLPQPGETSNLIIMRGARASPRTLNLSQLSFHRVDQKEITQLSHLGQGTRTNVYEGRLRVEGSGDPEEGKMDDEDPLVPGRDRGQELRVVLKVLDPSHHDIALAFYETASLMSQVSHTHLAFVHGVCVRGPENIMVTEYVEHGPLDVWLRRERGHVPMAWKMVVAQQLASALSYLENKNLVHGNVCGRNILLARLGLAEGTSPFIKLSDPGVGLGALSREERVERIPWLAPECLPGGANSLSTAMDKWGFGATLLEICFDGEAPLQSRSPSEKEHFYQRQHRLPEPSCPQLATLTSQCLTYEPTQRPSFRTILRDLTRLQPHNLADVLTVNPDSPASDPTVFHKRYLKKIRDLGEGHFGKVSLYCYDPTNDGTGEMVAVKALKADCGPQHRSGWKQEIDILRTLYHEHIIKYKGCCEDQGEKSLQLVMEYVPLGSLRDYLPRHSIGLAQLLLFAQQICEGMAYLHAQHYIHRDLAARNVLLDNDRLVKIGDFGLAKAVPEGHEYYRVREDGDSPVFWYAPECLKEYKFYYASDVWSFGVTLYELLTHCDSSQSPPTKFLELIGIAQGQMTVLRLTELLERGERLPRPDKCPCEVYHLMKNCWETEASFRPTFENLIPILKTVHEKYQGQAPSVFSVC
# Chain of S-adenosylmethionine synthase isoform type-2 (P31153 whole entry, canonical isoform): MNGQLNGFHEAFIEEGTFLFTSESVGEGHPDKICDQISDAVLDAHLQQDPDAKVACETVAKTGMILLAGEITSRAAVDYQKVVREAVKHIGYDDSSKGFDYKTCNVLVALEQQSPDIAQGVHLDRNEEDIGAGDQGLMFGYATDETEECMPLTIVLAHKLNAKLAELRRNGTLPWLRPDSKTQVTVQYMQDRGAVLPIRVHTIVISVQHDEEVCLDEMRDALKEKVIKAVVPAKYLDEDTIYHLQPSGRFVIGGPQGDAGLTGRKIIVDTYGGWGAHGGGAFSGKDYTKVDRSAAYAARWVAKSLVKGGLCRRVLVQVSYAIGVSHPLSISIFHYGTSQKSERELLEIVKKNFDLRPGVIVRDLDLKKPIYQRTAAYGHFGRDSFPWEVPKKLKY
# Chain of Ribosomal protein S6 kinase alpha-4 (O75676 whole entry): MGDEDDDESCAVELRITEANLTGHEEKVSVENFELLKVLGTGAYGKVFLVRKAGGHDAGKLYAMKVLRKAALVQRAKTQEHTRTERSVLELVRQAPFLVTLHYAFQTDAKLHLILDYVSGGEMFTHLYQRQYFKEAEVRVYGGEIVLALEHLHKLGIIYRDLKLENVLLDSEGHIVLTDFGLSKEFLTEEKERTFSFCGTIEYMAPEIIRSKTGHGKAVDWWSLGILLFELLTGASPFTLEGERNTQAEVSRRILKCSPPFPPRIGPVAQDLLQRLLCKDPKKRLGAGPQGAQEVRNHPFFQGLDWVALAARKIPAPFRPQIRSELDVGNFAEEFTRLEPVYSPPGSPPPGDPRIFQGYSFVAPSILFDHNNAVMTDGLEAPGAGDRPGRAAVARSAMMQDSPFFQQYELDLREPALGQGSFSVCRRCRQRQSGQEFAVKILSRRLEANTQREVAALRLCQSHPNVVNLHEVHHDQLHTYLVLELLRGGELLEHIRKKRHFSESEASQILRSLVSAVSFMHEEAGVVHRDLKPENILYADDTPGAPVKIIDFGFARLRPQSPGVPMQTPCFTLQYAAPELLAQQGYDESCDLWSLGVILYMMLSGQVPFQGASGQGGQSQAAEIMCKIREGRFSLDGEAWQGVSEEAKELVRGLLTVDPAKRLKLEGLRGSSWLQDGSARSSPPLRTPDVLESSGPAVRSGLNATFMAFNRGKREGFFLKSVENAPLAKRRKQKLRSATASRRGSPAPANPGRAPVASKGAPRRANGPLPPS
# Chain of Cyclin-dependent kinase 7 (P50613 whole entry): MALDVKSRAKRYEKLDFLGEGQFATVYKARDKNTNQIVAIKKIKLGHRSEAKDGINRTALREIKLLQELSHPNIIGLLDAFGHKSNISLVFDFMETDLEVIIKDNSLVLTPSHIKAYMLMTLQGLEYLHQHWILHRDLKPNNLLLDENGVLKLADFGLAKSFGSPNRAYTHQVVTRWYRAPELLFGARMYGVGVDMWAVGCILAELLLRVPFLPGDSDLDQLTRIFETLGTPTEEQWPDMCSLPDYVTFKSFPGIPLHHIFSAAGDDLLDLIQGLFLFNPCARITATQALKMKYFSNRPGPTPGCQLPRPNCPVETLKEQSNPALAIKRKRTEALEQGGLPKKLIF
# Chain of Casein kinase I isoform delta (P48730 whole entry, canonical isoform): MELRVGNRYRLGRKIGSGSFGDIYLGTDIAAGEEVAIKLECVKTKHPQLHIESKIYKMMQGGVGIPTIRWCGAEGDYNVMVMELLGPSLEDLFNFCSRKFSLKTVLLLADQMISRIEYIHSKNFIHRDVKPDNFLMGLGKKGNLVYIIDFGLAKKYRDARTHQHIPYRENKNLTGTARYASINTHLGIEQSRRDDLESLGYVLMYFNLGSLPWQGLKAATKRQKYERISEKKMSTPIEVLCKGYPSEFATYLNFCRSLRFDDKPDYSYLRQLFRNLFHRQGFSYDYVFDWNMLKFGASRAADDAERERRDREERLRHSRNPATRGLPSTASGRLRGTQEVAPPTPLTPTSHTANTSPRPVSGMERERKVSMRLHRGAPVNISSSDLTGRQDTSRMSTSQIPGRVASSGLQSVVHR
# Chain of Casein kinase I isoform gamma-1 (Q9HCP0 whole entry, canonical isoform): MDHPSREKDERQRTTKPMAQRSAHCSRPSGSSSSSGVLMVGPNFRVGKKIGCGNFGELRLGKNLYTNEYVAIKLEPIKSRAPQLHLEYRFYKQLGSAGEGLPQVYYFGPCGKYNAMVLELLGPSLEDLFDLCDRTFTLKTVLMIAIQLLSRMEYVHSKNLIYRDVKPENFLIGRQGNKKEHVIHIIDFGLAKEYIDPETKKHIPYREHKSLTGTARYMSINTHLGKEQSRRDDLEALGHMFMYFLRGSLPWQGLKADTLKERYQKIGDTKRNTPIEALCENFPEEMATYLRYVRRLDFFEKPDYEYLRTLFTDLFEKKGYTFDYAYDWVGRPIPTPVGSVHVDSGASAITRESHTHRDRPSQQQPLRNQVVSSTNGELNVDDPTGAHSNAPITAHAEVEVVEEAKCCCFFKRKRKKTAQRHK
# Chain of Putative heat shock protein HSP 90-beta 2 (Q58FF8 whole entry): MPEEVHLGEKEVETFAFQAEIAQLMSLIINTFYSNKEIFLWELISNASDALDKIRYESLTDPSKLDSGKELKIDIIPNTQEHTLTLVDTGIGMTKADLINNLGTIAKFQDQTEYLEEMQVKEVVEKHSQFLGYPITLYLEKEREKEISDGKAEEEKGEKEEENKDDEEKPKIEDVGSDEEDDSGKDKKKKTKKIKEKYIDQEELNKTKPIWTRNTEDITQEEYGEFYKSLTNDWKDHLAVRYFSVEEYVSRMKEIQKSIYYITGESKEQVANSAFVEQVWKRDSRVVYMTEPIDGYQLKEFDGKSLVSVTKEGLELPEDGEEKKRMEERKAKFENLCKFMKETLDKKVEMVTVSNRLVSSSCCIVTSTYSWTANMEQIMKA
# Chain of Deoxycytidine kinase (P27707 whole entry, canonical isoform): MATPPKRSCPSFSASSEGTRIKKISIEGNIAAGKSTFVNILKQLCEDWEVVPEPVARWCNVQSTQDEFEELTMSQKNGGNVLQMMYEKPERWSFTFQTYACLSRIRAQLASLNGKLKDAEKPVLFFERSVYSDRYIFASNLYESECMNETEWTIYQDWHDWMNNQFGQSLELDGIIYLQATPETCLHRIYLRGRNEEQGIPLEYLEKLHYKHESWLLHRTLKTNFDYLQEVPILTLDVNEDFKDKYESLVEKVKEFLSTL
SMILES,Kd [1],Kd [2],Kd [3],Kd [4],Kd [5],Kd [6],Kd [7],Kd [9],Kd (Activated CDC42 kinase 1),Kd [10],Kd [11],Kd [12],Kd [13],Kd [14],Kd (Deoxycytidine kinase),Kd [15],Kd [16],Kd [17],Kd [18],Kd [8]
COc1c(OCCCN2CCOCC2)ccc2c1N=C(NC(=O)c1cnc(N)nc1)N1CCN=C21 [COPANLISIB],> 30 µM (inactive),> 30 µM (inactive),> 30 µM (inactive),> 30 µM (inactive),> 30 µM (inactive),> 30 µM (inactive),> 30 µM (inactive),> 30 µM (inactive),> 30 µM (inactive),> 30 µM (inactive),> 30 µM (inactive),> 30 µM (inactive),> 30 µM (inactive),> 30 µM (inactive),> 30 µM (inactive),> 30 µM (inactive),> 30 µM (inactive),> 30 µM (inactive),> 30 µM (inactive),> 30 µM (inactive)
COCC(=O)NC/C=C/c1ccc2ncnc(Nc3ccc(Oc4ccc(C)nc4)c(C)c3)c2c1 [CP-724714],> 30 µM (inactive),> 30 µM (inactive),> 30 µM (inactive),> 30 µM (inactive),> 30 µM (inactive),> 30 µM (inactive),> 30 µM (inactive),> 30 µM (inactive),> 30 µM (inactive),> 30 µM (inactive),> 30 µM (inactive),> 30 µM (inactive),> 30 µM (inactive),> 30 µM (inactive),> 30 µM (inactive),> 30 µM (inactive),> 30 µM (inactive),> 30 µM (inactive),> 30 µM (inactive),> 30 µM (inactive)
C#Cc1cccc(Nc2ncnc3cc(OC)c(OCCCCCCC(=O)NO)cc23)c1 [CUDC-101],> 30 µM (inactive),> 30 µM (inactive),> 30 µM (inactive),> 30 µM (inactive),> 30 µM (inactive),> 30 µM (inactive),> 30 µM (inactive),> 30 µM (inactive),> 30 µM (inactive),> 30 µM (inactive),> 30 µM (inactive),> 30 µM (inactive),> 30 µM (inactive),1.09 µM (active),> 30 µM (inactive),> 30 µM (inactive),> 30 µM (inactive),> 30 µM (inactive),> 30 µM (inactive),> 30 µM (inactive)
CCS(=O)(=O)N1CCN(c2ccc(Nc3ncc(C(N)=O)c(NC4CC4)n3)cc2)CC1 [Cerdulatinib Hydrochloride],19.2 µM (active),> 30 µM (inactive),> 30 µM (inactive),> 30 µM (inactive),> 30 µM (inactive),> 30 µM (inactive),> 30 µM (inactive),> 30 µM (inactive),> 30 µM (inactive),0.032 µM (active),> 30 µM (inactive),> 30 µM (inactive),> 30 µM (inactive),> 30 µM (inactive),> 30 µM (inactive),> 30 µM (inactive),> 30 µM (inactive),> 30 µM (inactive),> 30 µM (inactive),> 30 µM (inactive)
Cc1cccc(-c2nn3c(c2-c2ccnc4ccc(C(N)=O)cc24)CCC3)n1 [GALUNISERTIB],> 30 µM (inactive),> 30 µM (inactive),> 30 µM (inactive),> 30 µM (inactive),16.1 µM (active),> 30 µM (inactive),> 30 µM (inactive),> 30 µM (inactive),> 30 µM (inactive),> 30 µM (inactive),1.21 µM,> 30 µM (inactive),> 30 µM (inactive),0.038 µM (active),> 30 µM (inactive),> 30 µM (inactive),> 30 µM (inactive),> 30 µM (inactive),> 30 µM (inactive),> 30 µM (inactive)

# Continued, in another order:
Kd [1],Kd [2],Kd [3],Kd [4],Kd [5],Kd [6],Kd [7],Kd [9],Kd (Activated CDC42 kinase 1),Kd [10],Kd [11],Kd [12],Kd [13],Kd [14],Kd (Deoxycytidine kinase),Kd [15],Kd [16],Kd [17],Kd [18],SMILES,Kd [8]
> 30 µM (inactive),> 30 µM (inactive),> 30 µM (inactive),> 30 µM (inactive),> 30 µM (inactive),> 30 µM (inactive),> 30 µM (inactive),> 30 µM (inactive),> 30 µM (inactive),> 30 µM (inactive),> 30 µM (inactive),> 30 µM (inactive),> 30 µM (inactive),0.199 µM (active),> 30 µM (inactive),> 30 µM (inactive),> 30 µM (inactive),> 30 µM (inactive),> 30 µM (inactive),CNC(=O)c1cccc2cc(Oc3ccnc4cc(OCC5(N)CC5)c(OC)cc34)ccc12 [LUCITANIB],> 30 µM (inactive)
> 30 µM (inactive),> 30 µM (inactive),> 30 µM (inactive),> 30 µM (inactive),> 30 µM (inactive),> 30 µM (inactive),> 30 µM (inactive),> 30 µM (inactive),> 30 µM (inactive),> 30 µM (inactive),> 30 µM (inactive),> 30 µM (inactive),> 30 µM (inactive),> 30 µM (inactive),> 30 µM (inactive),> 30 µM (inactive),> 30 µM (inactive),> 30 µM (inactive),> 30 µM (inactive),NC1(c2ccc(-c3nc4ccn5c(=O)[nH]nc5c4cc3-c3ccccc3)cc2)CCC1 [MK-2206],> 30 µM (inactive)
> 30 µM (inactive),> 30 µM (inactive),> 30 µM (inactive),> 30 µM (inactive),> 30 µM (inactive),> 30 µM (inactive),> 30 µM (inactive),> 30 µM (inactive),> 30 µM (inactive),> 30 µM (inactive),> 30 µM (inactive),> 30 µM (inactive),> 30 µM (inactive),> 30 µM (inactive),> 30 µM (inactive),> 30 µM (inactive),> 30 µM (inactive),> 30 µM (inactive),> 30 µM (inactive),CN(C[C@@H]1COCCO1)S(=O)(=O)Nc1ccc2ccc3ncc(-c4cnn(C)c4)cc3c(=O)c2c1 [MK-2461],> 30 µM (inactive)
> 30 µM (inactive),> 30 µM (inactive),> 30 µM (inactive),> 30 µM (inactive),> 30 µM (inactive),> 30 µM (inactive),> 30 µM (inactive),> 30 µM (inactive),> 30 µM (inactive),> 30 µM (inactive),> 30 µM (inactive),> 30 µM (inactive),> 30 µM (inactive),> 30 µM (inactive),> 30 µM (inactive),> 30 µM (inactive),> 30 µM (inactive),> 30 µM (inactive),> 30 µM (inactive),Cn1cc(-c2cnc3ccc4ccc(CS(=O)(=O)NCc5ccccn5)cc4c(=O)c3c2)cn1 [MK-8033],> 30 µM (inactive)
